“And” between values parts separate entries of the source, which are not always exact repeats. Equal entries are not always repeated. Where two headings read alike, the source gives them in different places.
Assays:
p97^N616F = target: T1, p97^N616F (Homo sapiens, UniProt P55072, N616F); experiment: p97 ATPase activity (Biomol Green), N616F mutant; assay type: biochemical; conditions: for IC50: 200 μM ATP, six replicates; for Ratio of IC50 values for mutants to IC50 values for wild-type p97, N616F: N616F/WT
T1 construct: made in house
Description: (§1) Results were calculated from 6 replicates using GraphPad Prism 7.0 (GraphPad Software, Boston, MA).

wild-type p97 (p97^WT) = target: T2, wild-type p97 (p97^WT) (Homo sapiens, UniProt P55072); experiment: p97 ATPase activity (Biomol Green), wild-type p97; assay type: biochemical; conditions: for IC50: 200 μM ATP, six replicates; for Ratio of IC50 values for mutants to IC50 values for wild-type p97, WT: WT/WT reference
T2 construct: made in house
Description: as §1

p97^P510S = target: T3, p97^P510S (Homo sapiens, UniProt P55072, P510S); experiment: p97 ATPase activity (Biomol Green), P510S mutant; assay type: biochemical; conditions: for IC50: 200 μM ATP, six replicates; for Ratio of IC50 values for mutants to IC50 values for wild-type p97, P510S: P510S/WT
T3 construct: made in house
Description: as §1

p97^K512N = target: T4, p97^K512N (Homo sapiens, UniProt P55072, K512N); experiment: p97 ATPase activity (Biomol Green), K512N mutant; assay type: biochemical; conditions: for IC50: 200 μM ATP, six replicates; for Ratio of IC50 values for mutants to IC50 values for wild-type p97, K512N: K512N/WT
T4 construct: made in house
Description: as §1

p97^R155H = target: T5, p97^R155H (Homo sapiens, UniProt P55072, R155H); experiment: p97 ATPase activity (Biomol Green), R155H mutant; assay type: biochemical; conditions: for IC50: 200 μM ATP, six replicates; for Ratio of IC50 values for mutants to IC50 values for wild-type p97, R155H: R155H/WT
T5 construct: enabling us to acquire high-resolution biomolecular structures of full-length p97; made in house
Description: as §1

p97^F618S = target: T6, p97^F618S (Homo sapiens, UniProt P55072, F618S); experiment: p97 ATPase activity (Biomol Green), F618S mutant; assay type: biochemical; conditions: for IC50: 200 μM ATP, six replicates
T6 construct: made in house
Description: as §1

[1] = system: Ub^G76V-GFP/ODD-Luc HeLa cells; experiment: Cellular Ub^G76V-GFP accumulation assay; assay type: cell-based; conditions: Table S3, four replicates, read-out: UbG76V-GFP EC50
Description: ImageXpress high-content confocal microscope (Molecular Devices, LLC., San Jose, CA) was used to image cells at GFP channel. The percentage of Ub^G76V-GFP accumulation (%Acc) is calculated using the following formula: […]
The IC50 values were calculated by fitting the %Acc from four replicates with various concentrations of compounds using GraphPad Prism 7.0 (GraphPad, Boston, MA).

HCT116 p97WT = experiment: HCT116 proliferation assay (CellTiter Glo); assay type: cell-based; parameters: key to cellular viability of HCT116: % of DMSO control viability
Description: (§2) Anti-proliferative activity was measured using CellTiter Glo® Luminescent Cell Viability Assay (Promega G7572) according to the manufacturer’s procedure as described. RMPI1640 containing 5% FBS and 1% penicillin-streptomycin was used as a cell viability medium. A standard curve of HCT116 was generated for finding the linear relationship between the relative luminescence unit and the number of viable cells. […] 24 h after seeding, 8 μL of media containing 5% DMSO was added to each well, and the plate was incubated for an additional 48 h. To test the anti-proliferative activity of p97 inhibitors, we seeded HCT116 at 750 cells per well according to the linear range. […] After 48 h of treatment, cell viability was measured by adding CellTiter Glo reagent and reading the signal with a BioTek Synergy Neo plate reader (Agilent, Santa Clara, CA). The IC50 values were calculated from four replicates using the percentage of growth of treated cells versus the DMSO control. The results were analyzed using GraphPad Prism 7.0 (GraphPad, Boston, MA).

HCT116 p97K512N = experiment: Cellular viability, resistant HCT116 p97K512N; assay type: cell-based
Description: (§3) Drug-resistant HCT116 cell lines were derived using the method previously described and with certain modifications[70],[99]. […] Drug-resistant clones were transferred into a new plate for passaging, and subsequently used to study drug resistance and identify the p97 mutations.
as §2

HCT116 p97P510S = experiment: Cellular viability, resistant HCT116 p97P510S; assay type: cell-based
Description: as §3, §2

HCT116 p97F618S = experiment: Cellular viability, resistant HCT116 p97F618S; assay type: cell-based; conditions: Table S3, four replicates
Description: as §3, §2

[2] = Homo sapiens, HCT-116, Table S3, cellular viability, four replicates, read-out: IC50 HCT116 p97WT
[3] = Homo sapiens, HCT-116, Table S3, four replicates

T5 sequence (P55072 whole entry R155H): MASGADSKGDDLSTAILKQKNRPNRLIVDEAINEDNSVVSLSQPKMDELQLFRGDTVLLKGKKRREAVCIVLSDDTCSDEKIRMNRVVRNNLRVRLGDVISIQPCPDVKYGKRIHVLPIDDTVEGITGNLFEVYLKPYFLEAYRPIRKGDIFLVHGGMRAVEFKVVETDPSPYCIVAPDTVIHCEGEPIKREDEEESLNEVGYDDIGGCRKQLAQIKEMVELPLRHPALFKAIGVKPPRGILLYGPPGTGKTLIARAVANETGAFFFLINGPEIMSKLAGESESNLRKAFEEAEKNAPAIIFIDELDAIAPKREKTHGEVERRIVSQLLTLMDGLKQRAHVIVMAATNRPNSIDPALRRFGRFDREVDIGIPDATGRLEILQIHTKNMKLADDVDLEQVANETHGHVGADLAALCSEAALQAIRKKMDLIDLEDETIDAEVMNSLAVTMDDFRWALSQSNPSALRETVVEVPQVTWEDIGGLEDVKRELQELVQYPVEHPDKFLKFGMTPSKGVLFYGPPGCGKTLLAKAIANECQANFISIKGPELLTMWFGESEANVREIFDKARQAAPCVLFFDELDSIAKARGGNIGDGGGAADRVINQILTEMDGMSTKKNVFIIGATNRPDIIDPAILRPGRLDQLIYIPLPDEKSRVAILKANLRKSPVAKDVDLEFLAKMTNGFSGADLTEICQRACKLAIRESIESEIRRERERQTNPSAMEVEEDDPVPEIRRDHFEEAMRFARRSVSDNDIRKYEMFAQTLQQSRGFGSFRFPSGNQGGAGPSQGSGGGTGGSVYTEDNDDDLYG
T4 sequence (P55072 whole entry K512N): as the sequence (P55072 whole entry R155H) above, with H155R, K512N counted along it
T3 sequence (P55072 whole entry P510S): as the sequence (P55072 whole entry R155H) above, with H155R, P510S counted along it
T6 sequence (P55072 whole entry F618S): as the sequence (P55072 whole entry R155H) above, with H155R, F618S counted along it
T2 sequence (P55072 whole entry): as the sequence (P55072 whole entry R155H) above, with H155R counted along it
T1 sequence (P55072 whole entry N616F): as the sequence (P55072 whole entry R155H) above, with H155R, N616F counted along it

SMILES: CCC(=O)NCC#Cc1cc(F)c(OCc2nnc(S[C@H]3C=CCCC3)n2-c2cccnc2)cc1F [NSC804515]
- increase of IC50 versus p97^WT, N616F (p97^N616F): more than 30 fold
- IC50 (p97^N616F): > 6600 nM
- Ratio of IC50 values for mutants to IC50 values for wild-type p97, N616F (p97^N616F): > 440
- IC50 (wild-type p97 (p97^WT)): 15 nM
- Ratio of IC50 values for mutants to IC50 values for wild-type p97, WT (wild-type p97 (p97^WT)): 1
- % ATPase activity (wild-type p97 (p97^WT); inhibitor 0.000905 µM): 99%
- % ATPase activity (wild-type p97 (p97^WT); inhibitor 0.002716 µM): 92%
- % ATPase activity (wild-type p97 (p97^WT); inhibitor 0.008148 µM): 72%
- % ATPase activity (wild-type p97 (p97^WT); inhibitor 0.024444 µM): 32%
- % ATPase activity (wild-type p97 (p97^WT); inhibitor 0.073333 µM): 16%
- % ATPase activity (wild-type p97 (p97^WT); inhibitor 0.220000 µM): 12%
- increase of IC50 versus p97^WT, P510S (p97^P510S): more than 30 fold
- IC50 (p97^P510S): 2320 nM
- Ratio of IC50 values for mutants to IC50 values for wild-type p97, P510S (p97^P510S): 155
- increase of IC50 versus p97^WT, K512N (p97^K512N): 12 fold
- IC50 (p97^K512N): 180 nM
- Ratio of IC50 values for mutants to IC50 values for wild-type p97, K512N (p97^K512N): 12
- IC50 (p97^R155H): 14 nM
- Ratio of IC50 values for mutants to IC50 values for wild-type p97, R155H (p97^R155H): 0.9
- increase of IC50 versus p97^WT, F618S (p97^F618S): more than 30 fold
- IC50 (p97^F618S): 1750 nM
- EC50 ([1]; Homo sapiens, HeLa): 870 nM
- IC50 (HCT116 p97WT; [2]): 750 nM

SMILES: C[C@@H]1CN(C(=O)Cn2ncc(-c3cc(F)c(OCc4nnc(S[C@H]5C=CCCC5)n4-c4cccnc4)cc3F)n2)C[C@H](C)O1 [NSC819701]
- increase of IC50 versus p97^WT, N616F (p97^N616F): more than 30 fold
- IC50 (p97^N616F): 5340 nM
- Ratio of IC50 values for mutants to IC50 values for wild-type p97, N616F (p97^N616F): 334
- IC50 (wild-type p97 (p97^WT)): 16 nM
- Ratio of IC50 values for mutants to IC50 values for wild-type p97, WT (wild-type p97 (p97^WT)): 1
- % ATPase activity (wild-type p97 (p97^WT); inhibitor 0.000905 µM): 102%
- % ATPase activity (wild-type p97 (p97^WT); inhibitor 0.002716 µM): 90%
- % ATPase activity (wild-type p97 (p97^WT); inhibitor 0.008148 µM): 71%
- % ATPase activity (wild-type p97 (p97^WT); inhibitor 0.024444 µM): 31%
- % ATPase activity (wild-type p97 (p97^WT); inhibitor 0.073333 µM): 23%
- % ATPase activity (wild-type p97 (p97^WT); inhibitor 0.220000 µM): 14%
- increase of IC50 versus p97^WT, P510S (p97^P510S): more than 30 fold
- IC50 (p97^P510S): 2800 nM
- Ratio of IC50 values for mutants to IC50 values for wild-type p97, P510S (p97^P510S): 175
- increase of IC50 versus p97^WT, K512N (p97^K512N): 7.5 fold
- IC50 (p97^K512N): 120 nM
- Ratio of IC50 values for mutants to IC50 values for wild-type p97, K512N (p97^K512N): 7.5
- IC50 (p97^R155H): 15 nM
- Ratio of IC50 values for mutants to IC50 values for wild-type p97, R155H (p97^R155H): 0.9
- increase of IC50 versus p97^WT, F618S (p97^F618S): more than 30 fold
- IC50 (p97^F618S): 1510 nM
- Ratio of IC50 values for mutants to IC50 values for wild-type p97, F618S (p97^F618S; F618S/WT): 94
- EC50 ([1]; Homo sapiens, HeLa): 660 nM
- IC50 (HCT116 p97WT; [2]): 830 nM

SMILES: CC1CCCC(C)N1CCOc1cc([N+](=O)[O-])ccc1C#N (stereo not drawn) [UPCDC30733]
- IC50 (HCT116 p97K512N; Table S3, four replicates): 25000 nM
- IC50 (HCT116 p97P510S; Table S3, four replicates): 9600 nM
- EC50 [1]: 530 nM
- IC50 (HCT116 p97F618S): 21000 nM
- IC50 (HCT116 p97WT; Table S3, cellular viability, four replicates, read-out: IC50 HCT116 p97WT): 680 nM

SMILES: CN1CCC(NC(=O)OCC#Cc2cc(F)c(OCc3nnc(S[C@H]4C=CCCC4)n3-c3cccnc3)cc2F)CC1 [UPCDC30766]
- IC50 (HCT116 p97K512N; [3]): 7300 nM
- IC50 (HCT116 p97P510S; [3]): 10300 nM
- EC50 ([1]; Homo sapiens, HeLa): 270 nM
- cellular viability of HCT116 (HCT116 p97WT; 0.06 µM, single replicates): 99 and 98 and 101
- cellular viability of HCT116 (HCT116 p97WT; 0.17 µM, single replicates): 95 and 90
- cellular viability of HCT116 (HCT116 p97WT; 0.52 µM, single replicates): 6
- cellular viability of HCT116 (HCT116 p97WT; 14.0 µM, single replicates): 3
- cellular viability of HCT116 (HCT116 p97WT; 42.1 µM, single replicates): 1
- viability at 0.06 µM (HCT116 p97WT; Homo sapiens, HCT-116, 0.06 µM, single replicates, read-out: cellular viability of HCT116): 94%
- viability at 0.17 µM (HCT116 p97WT; Homo sapiens, HCT-116, 0.17 µM, single replicates, read-out: cellular viability of HCT116): 97%
- viability at 0.52 µM (HCT116 p97WT; Homo sapiens, HCT-116, 0.52 µM, single replicates, read-out: cellular viability of HCT116): 5%
- viability at 1.6 µM (HCT116 p97WT; Homo sapiens, HCT-116, 1.60 µM, single replicates, read-out: cellular viability of HCT116): 4%
- viability at 4.7 µM (HCT116 p97WT; Homo sapiens, HCT-116, 4.70 µM, single replicates, read-out: cellular viability of HCT116): 5%
- viability at 14 µM (HCT116 p97WT; Homo sapiens, HCT-116, 14.0 µM, single replicates, read-out: cellular viability of HCT116): 4%
- viability at 42.1 µM (HCT116 p97WT; Homo sapiens, HCT-116, 42.1 µM, single replicates, read-out: cellular viability of HCT116): 2%
- IC50 (HCT116 p97WT; [2]): 290 nM
- IC50 (HCT116 p97WT; Homo sapiens, HCT-116, Table S6, 48-hour treatment, read-out: Cell viability of HCT116 IC50): 296 nM
